This note sets out measurements from ChEMBL document CHEMBL4017476, “Synthesis of novel 5,6-dehydrokawain analogs as osteogenic inducers and their action mechanisms” (Bioorg Med Chem Lett, 2017).

The subject of series [1] is RAW264. Nature of the series: Inhibition of RANKL-stimulated osteoclastogenesis in mouse RAW264 cells assessed as reduction in TRAP activity at 20 uM measured after 72 hrs by microscopic analysis. Format: functional, cell-based.
Series [2] concerns MC3T3-E1. Nature of the series: Cytotoxicity against mouse MC3T3-E1 cells assessed as cell number at 30 uM measured after 4 days by WST-8 assay relative to control. Format: cell-based. The note with it: mc3t3-e1, 96 h. (Tetrazolium assays rely on reduction of a dye to a coloured formazan, in cell work by metabolically active cells.)
For series [3], the system named is MC3T3-E1. The series is described as follows: Osteogenic activity in mouse MC3T3-E1 cells assessed as increase in ALP activity at 30 uM measured after 4 days relative to control. Format: functional.
For series [4], the system named is MC3T3-E1. Nature of the series: Osteogenic activity in mouse MC3T3-E1 cells assessed as increase in mineralization at 30 uM measured after 10 days by alizarin red S staining based assay. Format: functional, cell-based.
Series [5] is filed under the species Mus musculus. The series is described as follows: Activation of BMP signaling pathway in mouse MC3T3-E1 cells assessed as increase in Runx2 mRNA expression at 10 uM after 2 days by SYBR green-dye based RT-PCR method relative to control. It is filed as cell-based.
The subject of series [6] is MC3T3-E1. Nature of the series: Osteogenic activity in mouse MC3T3-E1 cells assessed as increase in mineralization at 30 uM measured after 10 days in presence of type-1 BMP receptor kinase inhibitor LDN-193189 by alizarin red S staining based assay. Format: functional, cell-based.
For series [7], the system named is MC3T3-E1. Nature of the series: Osteogenic activity in mouse MC3T3-E1 cells assessed as increase in mineralization at 10 uM measured after 10 days by alizarin red S staining based assay. It is filed as functional, cell-based.
The target in series [8] is T1, SMAD1/5/9 (Mus musculus) (UniProt P70340+P97454+Q9JIW5). Nature of the series: Induction of Smad1/5/8 phosphorylation in mouse MC3T3-E1 cells assessed as ratio of phosphorylated Smad1/5/8 to actin beta protein level at 30 uM measured after 15 mins by Western blot analysis relative to control. Format: cell-based. On the technique in general: A western blot detects proteins with antibodies after separation by electrophoresis.

For series [9], the species on record is Mus musculus. Nature of the series: Activation of BMP signaling pathway in mouse MC3T3-E1 cells assessed as increase in Runx2 mRNA expression after 2 days by SYBR green-dye based RT-PCR method. It is filed as cell-based.
The target in series [10] is T2, MAP kinase p38 (Mus musculus) (UniProt P47811+O08911+Q9WUI1+Q9Z1B7). Nature of the series: Induction of p38 MAPK phosphorylation in mouse MC3T3-E1 cells assessed as ratio of phosphorylated p38 to unphosphorylated p38 protein level at 30 uM measured after 5 mins by Western blot analysis relative to control. It is filed as cell-based.
The test system of series [11] is RAW264. Nature of the series: Inhibition of RANKL-stimulated osteoclastogenesis in mouse RAW264 cells assessed as reduction in TRAP-positive multinucleated cells at 20 uM measured after 72 hrs by TRAP staining based microscopic analysis. It is filed as functional, cell-based.
For series [12], the species on record is Mus musculus. Nature of the series: Activation of BMP signaling pathway in mouse MC3T3-E1 cells assessed as increase in Alpl mRNA expression at 10 uM after 2 days by SYBR green-dye based RT-PCR method relative to control. It is filed as cell-based.
The species entered for series [13] is Mus musculus. Nature of the series: Activation of BMP signaling pathway in mouse MC3T3-E1 cells assessed as increase in Bglap mRNA expression after 2 days by SYBR green-dye based RT-PCR method. Format: cell-based.
For series [14], the species on record is Mus musculus. Nature of the series: Activation of BMP signaling pathway in mouse MC3T3-E1 cells assessed as increase in Bglap mRNA expression at 10 uM after 2 days by SYBR green-dye based RT-PCR method relative to control. Format: cell-based.
Series [15] concerns the target T1, SMAD1/5/9 (Mus musculus). The series is described as follows: Induction of Smad1/5/8 phosphorylation in mouse MC3T3-E1 cells assessed as ratio of phosphorylated Smad1/5/8 to actin beta protein level at 30 uM measured after 5 mins by Western blot analysis relative to control. It is filed as cell-based.
Series [16] relates to MC3T3-E1. The series is described as follows: Osteogenic activity in mouse MC3T3-E1 cells assessed as increase in ALP activity at 10 uM measured after 4 days relative to control. Format: functional, cell-based.
The species entered for series [17] is Mus musculus. Nature of the series: Activation of BMP signaling pathway in mouse MC3T3-E1 cells assessed as increase in Osterix mRNA expression after 2 days by SYBR green-dye based RT-PCR method. Format: cell-based.
Series [18] has as its target T2, MAP kinase p38 (Mus musculus). The series is described as follows: Induction of p38 MAPK phosphorylation in mouse MC3T3-E1 cells assessed as ratio of phosphorylated p38 to unphosphorylated p38 protein level at 30 uM measured after 15 mins by Western blot analysis relative to control. It is filed as cell-based.
The species entered for series [19] is Mus musculus. The series is described as follows: Activation of BMP signaling pathway in mouse MC3T3-E1 cells assessed as increase in Osterix mRNA expression at 10 uM after 2 days by SYBR green-dye based RT-PCR method relative to control. Format: cell-based.
The subject of series [20] is MC3T3-E1. Nature of the series: Osteogenic activity in mouse MC3T3-E1 cells assessed as increase in mineralization at 30 uM measured after 10 days in presence of p38 MAPK inhibitor SB203580 by alizarin red S staining based assay. Format: functional, cell-based.
For series [21], the target named is T2, MAP kinase p38 (Mus musculus). The series is described as follows: Induction of p38 MAPK phosphorylation in mouse MC3T3-E1 cells assessed as ratio of phosphorylated p38 to unphosphorylated p38 protein level at 30 uM measured after 30 mins by Western blot analysis relative to control. It is filed as cell-based.
The species named for series [22] is Mus musculus. Nature of the series: Activation of BMP signaling pathway in mouse MC3T3-E1 cells assessed as increase in Alpl mRNA expression after 2 days by SYBR green-dye based RT-PCR method. It is filed as cell-based.
Series [23] relates to MC3T3-E1. The series is described as follows: Osteogenic activity in mouse MC3T3-E1 cells assessed as increase in mineralization at 30 uM measured after 10 days in presence of BMP2 inhibitor noggin by alizarin red S staining based assay. It is filed as functional, cell-based.
The target in series [24] is T1, SMAD1/5/9 (Mus musculus). The series is described as follows: Induction of Smad1/5/8 phosphorylation in mouse MC3T3-E1 cells assessed as ratio of phosphorylated Smad1/5/8 to actin beta protein level at 30 uM measured after 30 mins by Western blot analysis relative to control. It is filed as cell-based.
The test system of series [25] is MC3T3-E1. The series is described as follows: Osteogenic activity in mouse MC3T3-E1 cells assessed as increase in mineralization at 0.1 to 60 uM measured after 10 days by alizarin red S staining based assay. It is filed as functional, cell-based.

The source made the active and inactive calls. The rule behind the calls is not given here.

For the compound `CC(C)Oc1ccc2c(=O)c(-c3ccccc3)coc2c1`, the inhibition result in series [1] is “Active”.

With `COc1cc(/C=C/c2ccsc2)oc(=O)c1`, the fold change (FC) in series [2] was 0.85 to 1.25. For the same compound, the outcome in series [3] and in [4] was inactive.

Regarding `COc1cc(/C=C/c2ccc(F)cc2)oc(=O)c1`, the fold change (FC) in [2] is 0.85 to 1.25. Further, the result in [3] and in [4] was inactive.

In the case of `COc1cc(/C=C/c2ccc(C)cc2)oc(=O)c1`, the fold change (FC) in [2] was in the range of 0.85 to 1.25. Moreover, the result in series [3] and in series [4] was Active.

On to `COc1cc(/C=C/c2cccc(C)c2)oc(=O)c1`, for which, in series [2], the fold change (FC) fell in the range of 0.85 to 1.25. Moreover, the outcome in [3] and in [4] was Active.

For `CCCCc1ccc(/C=C/c2cc(OC)cc(=O)o2)cc1`, the fold change (FC) in series [5] is 1.42; in series [2], 0.85 to 1.25; in series [12], 2.09; in series [14], 1.33; in series [19] it was 2.41. In addition, the inhibition result in [1] and in [11] was “Active” in each case. In addition, the result in series [6], in series [20] and in series [23] was inactive. The result in [7], in series [3], in series [16] and in series [4] was Active. Moreover, the Ratio worked out at 1.1 in [8]; 1.6 in [10]; 1.1 in [15]; 1.5 in series [18]; 1.1 in [21]; 1.1 in series [24]. For the same compound, the Activity entry in series [9], in series [13], in series [17] and in [22] was “Dose-dependent effect” each time.

As for `CCc1cccc(/C=C/c2cc(OC)cc(=O)o2)c1`, in series [2], the fold change (FC) was 0.85 to 1.25. For the same compound, the outcome in series [3] and in [4] was Active.

Regarding `COc1ccc(/C=C/c2cc(OC)cc(=O)o2)cc1` [YANGONIN], the fold change (FC) in [2] is 0.85 to 1.25. The result in series [3] and in [4] was inactive.

Turning to `COc1cc(/C=C/c2ccccc2)oc(=O)c1C`, the outcome in series [25] and in series [4] was inactive. The fold change (FC) in series [2] was in the range of 0.85 to 1.25.

Regarding `CCCc1ccc(/C=C/c2cc(OC)cc(=O)o2)cc1`, the fold change (FC) in [2] lay within 0.85 to 1.25.

In the case of `COc1cc(/C=C/c2ccccc2C)oc(=O)c1`, the fold change (FC) in series [2] was in the range of 0.85 to 1.25. For the same compound, the outcome in [3] and in series [4] was Active.

Turning to `COc1cc(/C=C/C2CC2)oc(=O)c1`, the fold change (FC) in series [2] was 0.85 to 1.25. For the same compound, the outcome in series [3] and in series [4] was inactive.
